# Reference: patent US20060069132A1, “Azolecarboxamide herbicides” (priority 2004, published 2006)
# Read-outs that look alike come from different tables or passages of the source.
# How the values were obtained:
# [1] = test system: velvetleaf; experiment: Test A pre-/postemergence herbicide test; assay type: in vivo, Abutilon theophrasti; conditions: for pest or weed control at 500 g/ha / pest or weed control at 2000 g/ha: Abutilon theophrasti, 240 h
# In short: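 Pre: seeded sandy loam, directed soil spray, compound in non-phytotoxic solvent + surfactant. Post: 1–2-leaf plants (2–10 cm), sprayed to runoff. Greenhouse ~10 d; visual injury vs untreated, 0–100 scale.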
# [2] = test system: velvetleaf; experiment: Test B pre-/postemergence herbicide test; assay type: in vivo, Abutilon theophrasti; conditions: for Velvetleaf plant response rating (0 to 100 scale) / Plant response rating, Velvetleaf: preemergence; for Velvetleaf plant response rating: postemergence
# In short: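 Plants compared with untreated controls 13–15 days post-treatment and given a visual 0–100 injury score. Applications: preemergence to seeds; postemergence at 1- to 4-leaf (2–18 cm); paddy species flooded, 2-leaf stage. Vehicle non-phytotoxic, surfactant included.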
# [3] = test system: bermudagrass; experiment: Test C pre-/postemergence herbicide test; assay type: in vivo, Cynodon dactylon
# In short: (§1)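 Visual injury scores run from 0 (no effect) to 100 (complete control), assessed relative to untreated controls 12 to 14 days after treatment in the greenhouse. Chemicals were formulated in a non-phytotoxic solvent mixture with surfactant and applied to soil after planting or to emerged plants at the 1- to 4-leaf stage.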
# [4] = test system: cocklebur; experiment: Test C pre-/postemergence herbicide test; assay type: in vivo, Xanthium strumarium
# In short: as §1
# [5] = test system: large crabgrass; experiment: Test C pre-/postemergence herbicide test; assay type: in vivo, Digitaria sanguinalis; conditions: for Crabgrass, Large plant response rating: Preemergence, scale 0 to 100, 0 no effect, 100 complete control
# In short: as §1
# [6] = test system: kochia; experiment: Test C pre-/postemergence herbicide test; assay type: in vivo, Kochia scoparia; conditions: for Kochia plant response rating: Preemergence, scale 0 to 100, 0 no effect, 100 complete control
# In short: as §1
# [7] = test system: yellow nutsedge; experiment: Test C pre-/postemergence herbicide test; assay type: in vivo, Cyperus esculentus
# In short: as §1
# [8] = test system: soybean; experiment: Test C pre-/postemergence herbicide test; assay type: in vivo, Glycine max; conditions: for Soybean plant response rating: Preemergence, scale 0 to 100, 0 no effect, 100 complete control
# In short: as §1
# [9] = test system: ducksalad; experiment: Test C flooded paddy test; assay type: in vivo, Heteranthera limosa; conditions: Heteranthera limosa
# [10] = Postemergence, 500 g ai/ha, 0 to 100 scale, 0 no effect, 100 complete control
# [11] = Postemergence, 2000 g ai/ha, 0 to 100 scale, 0 no effect, 100 complete control
# [12] = Preemergence, 2000 g ai/ha, visual rating, 0 to 100 scale (0 no effect, 100 complete control)
# [13] = preemergence, 500 g ai/ha, visual injury, 0 to 100 scale (0 no effect, 100 complete control)
# [14] = 125 g ai/ha, 0 = no effect, 100 = complete control
# [15] = 125 g ai/ha, visual rating, scale 0 (no effect) to 100 (complete control)
# [16] = 500 g ai/ha, visual rating, scale 0 (no effect) to 100 (complete control)
# [17] = 62 g ai/ha, preemergence, scale 0 to 100, 0 no effect, 100 complete control
# [18] = 125 g ai/ha, scale 0 (no effect) to 100 (complete control), visual, 12 to 14 days, preemergence
# [19] = 250 g ai/ha, scale 0-100, preemergence
# [20] = Preemergence, 500 g ai/ha, scale 0 to 100, 0 no effect, 100 complete control
# [21] = 62 g ai/ha, preemergence, scale 0 to 100
# [22] = 500 g ai/ha, scale 0 to 100 (0 no effect, 100 complete control), visual, 12 to 14 days, preemergence
smiles,measurement,setting,value
"CCNC(=O)c1ccc(F)c(NC(=O)c2cc(C(C)(C)C)nn2CC)c1 [Compound 2, 3-(1,1-dimethylethyl)-1-ethyl-N-[5-[(ethylamino)carbonyl]-2-fluorophenyl]-1H-pyrazole-5-carboxamide]",pest or weed control at 500 g/ha,"[1]; post-emergence, Postemergence, 500 g ai/ha, 0 to 100 scale, 0 no effect, 100 complete control, read-out: Plant response rating, Velvetleaf",40%
same,pest or weed control at 2000 g/ha,"[1]; post-emergence, Postemergence, 2000 g ai/ha, 0 to 100 scale, 0 no effect, 100 complete control, read-out: Plant response rating, Velvetleaf",75%
same,pest or weed control at 500 g/ha,"[1]; pre-emergence, Preemergence, 500 g ai/ha, visual rating, 0 to 100 scale (0 no effect, 100 complete control), read-out: Velvetleaf plant response rating",100%
same,pest or weed control at 2000 g/ha,"[1]; pre-emergence, Preemergence, 2000 g ai/ha, 0 to 100 scale, 0 no effect, 100 complete control, read-out: Velvetleaf plant response rating",100%
same,pest or weed control at 125 g/ha,"[2]; Abutilon theophrasti, post-emergence, 336 h, Postemergence, 125 g ai/ha, scale 0 (no effect) to 100 (complete control), read-out: Velvetleaf plant response rating",20%
same,pest or weed control at 500 g/ha,"[2]; Abutilon theophrasti, post-emergence, 336 h, Postemergence, 500 g ai/ha, visual rating after 13 to 15 days, scale 0 (no effect) to 100 (complete control), read-out: Plant response rating, Velvetleaf",50%
same,pest or weed control at 500 g/ha,"[2]; Abutilon theophrasti, pre-emergence, 336 h, Preemergence, 500 g ai/ha, scale 0 to 100, read-out: Velvetleaf plant response rating",100%
same,"Plant response rating (0 = no effect, 100 = complete control), Bermudagrass","[3]; 62 g ai/ha, preemergence",85
same,pest or weed control at 125 g/ha,"[3]; Cynodon dactylon, pre-emergence, 312 h, 125 g ai/ha, scale 0-100, read-out: Plant response rating, Bermudagrass",90%
same,pest or weed control at 250 g/ha,"[3]; Cynodon dactylon, pre-emergence, 312 h, 250 g ai/ha, scale 0 to 100 (0 no effect, 100 complete control), visual, 12 to 14 days, read-out: Plant response rating, Bermudagrass",95%
same,pest or weed control at 500 g/ha,"[3]; Cynodon dactylon, pre-emergence, 312 h, Preemergence, 500 g ai/ha, scale 0 to 100, 0 no effect, 100 complete control, read-out: Bermudagrass plant response rating",95%
same,"Plant response rating (0 = no effect, 100 = complete control), Cocklebur","[4]; 62 g ai/ha, preemergence",5
same,pest or weed control at 125 g/ha,"[4]; Xanthium strumarium, pre-emergence, 312 h, 125 g ai/ha, scale 0-100, read-out: Plant response rating, Cocklebur",5%
same,pest or weed control at 250 g/ha,"[4]; Xanthium strumarium, pre-emergence, 312 h, 250 g ai/ha, scale 0 to 100 (0 no effect, 100 complete control), visual, 12 to 14 days, read-out: Plant response rating, Cocklebur",65%
same,pest or weed control at 500 g/ha,"[4]; Xanthium strumarium, pre-emergence, 312 h, Preemergence, 500 g ai/ha, scale 0 to 100, 0 no effect, 100 complete control, read-out: Cocklebur plant response rating",80%
same,"Plant response rating (0 = no effect, 100 = complete control), Crabgrass, Large","[5]; 62 g ai/ha, preemergence",95
same,pest or weed control at 125 g/ha,"[5]; Digitaria sanguinalis, pre-emergence, 312 h, 125 g ai/ha, scale 0-100, read-out: Plant response rating, Crabgrass, Large",95%
same,pest or weed control at 250 g/ha,"[5]; Digitaria sanguinalis, pre-emergence, 312 h, 250 g ai/ha, scale 0 to 100 (0 no effect, 100 complete control), visual, 12 to 14 days, read-out: Plant response rating, Crabgrass, Large",100%
same,"Crabgrass, Large plant response rating",[5]; 500 g ai/ha,100
same,"Plant response rating (0 = no effect, 100 = complete control), Kochia","[6]; 62 g ai/ha, preemergence",100
same,pest or weed control at 125 g/ha,"[6]; Bassia scoparia, pre-emergence, 125 g ai/ha, scale 0-100, read-out: Plant response rating, Kochia",100%
same,pest or weed control at 250 g/ha,"[6]; Bassia scoparia, pre-emergence, 250 g ai/ha, scale 0 to 100 (0 no effect, 100 complete control), visual, 12 to 14 days, read-out: Plant response rating, Kochia",100%
same,Kochia plant response rating,[6]; 500 g ai/ha,100
same,"Plant response rating (0 = no effect, 100 = complete control), Nutsedge, Yellow","[7]; 62 g ai/ha, preemergence",30
same,pest or weed control at 250 g/ha,"[7]; Cyperus, pre-emergence, 250 g ai/ha, scale 0 to 100 (0 no effect, 100 complete control), visual, 12 to 14 days, read-out: Plant response rating, Nutsedge, Yellow",90%
same,"Plant response rating (0 = no effect, 100 = complete control), Soybean","[8]; 62 g ai/ha, preemergence",30
same,plant injury at 250 g/ha,"[8]; Glycine max, pre-emergence, 250 g ai/ha, scale 0 to 100 (0 no effect, 100 complete control), visual, 12 to 14 days, read-out: Plant response rating, Soybean",100%
same,Soybean plant response rating,[8]; 500 g ai/ha,100
same,pest or weed control at 62 g/ha,"[9]; 62 g ai/ha, scale 0 to 100 (0 no effect, 100 complete control), read-out: Ducksalad plant response rating",80%
same,pest or weed control at 125 g/ha,"[9]; 125 g ai/ha, scale of 0 to 100, 0 is no effect, 100 is complete control, read-out: Ducksalad plant response rating",80%
same,pest or weed control at 250 g/ha,"[9]; 250 g ai/ha, visual rating after 12 to 14 days, scale 0 to 100 (0 no effect, 100 complete control), read-out: Plant response rating, Ducksalad",85%
same,pest or weed control at 500 g/ha,"[9]; 500 g ai/ha, visual rating after 12 to 14 days, scale 0 to 100 (0 no effect, 100 complete control), read-out: Plant response rating, Ducksalad",95%
CCNC(=O)c1cccc(NC(=O)c2sc(C(C)(C)C)nc2C)c1 [Compound 198],Velvetleaf plant response rating,[1]; [10],30
same,"Plant response rating, Velvetleaf",[1]; [11],35
same,Velvetleaf plant response rating,[1]; [12],85
same,Velvetleaf plant response rating,[1]; [13],45
same,Velvetleaf plant response rating (0 to 100 scale),[2]; [14],0
same,"Plant response rating, Velvetleaf","[2]; 500 g ai/ha, visual rating 0-100, 0 no effect, 100 complete control",60
same,Velvetleaf plant response rating,[2]; [15],20
same,Velvetleaf plant response rating,[2]; [16],20
same,"Plant response rating, Bermudagrass",[3]; [17],60
same,"Plant response rating, Bermudagrass",[3]; [18],85
same,"Plant response rating, Bermudagrass",[3]; [19],100
same,Bermudagrass plant response rating,[3]; [20],100
same,"Plant response rating, Cocklebur",[4]; [21],0
same,"Plant response rating, Cocklebur",[4]; [18],0
same,"Plant response rating, Cocklebur",[4]; [19],0
same,Cocklebur plant response rating,[4]; [20],10
same,"Plant response rating, Crabgrass, Large",[5]; [21],80
same,"Plant response rating, Crabgrass, Large",[5]; [18],85
same,"Plant response rating, Crabgrass, Large",[5]; [19],95
same,"Crabgrass, Large plant response rating",[5]; 500 g ai/ha,95
same,"Plant response rating, Kochia",[6]; [21],50
same,"Plant response rating, Kochia",[6]; [18],80
same,"Plant response rating, Kochia",[6]; [19],100
same,Kochia plant response rating,[6]; 500 g ai/ha,100
same,"Plant response rating, Nutsedge, Yellow",[7]; [21],0
same,"Plant response rating, Nutsedge, Yellow",[7]; [18],0
same,"Plant response rating, Nutsedge, Yellow",[7]; [19],0
same,"Nutsedge, Yellow plant response rating",[7]; [20],5
same,"Plant response rating, Soybean",[8]; [21],0
same,"Plant response rating, Soybean",[8]; [18],0
same,"Plant response rating, Soybean",[8]; [19],0
same,Soybean plant response rating,[8]; 500 g ai/ha,25
CCNC(=O)c1cccc(NC(=O)c2sc(C(C)(C)C)nc2CC)n1 [Compound 213],Velvetleaf plant response rating,[1]; [10],30
same,"Plant response rating, Velvetleaf",[1]; [11],25
same,Velvetleaf plant response rating,[1]; [12],35
same,Velvetleaf plant response rating,[1]; [13],15
same,Velvetleaf plant response rating (0 to 100 scale),[2]; [14],0
same,"Plant response rating, Velvetleaf","[2]; 500 g ai/ha, visual rating, 0 = no effect, 100 = complete control",80
same,Velvetleaf plant response rating,[2]; [15],0
same,Velvetleaf plant response rating,[2]; [16],60
same,"Plant response rating, Bermudagrass",[3]; [17],50
same,"Plant response rating, Bermudagrass",[3]; [18],60
same,"Plant response rating, Bermudagrass",[3]; [19],80
same,Bermudagrass plant response rating,[3]; [20],90
same,"Plant response rating, Cocklebur",[4]; [19],100
same,Cocklebur plant response rating,[4]; [20],100
same,"Plant response rating, Crabgrass, Large",[5]; [21],0
same,"Plant response rating, Crabgrass, Large",[5]; [18],50
same,"Plant response rating, Crabgrass, Large",[5]; [19],100
same,"Plant response rating, Crabgrass, Large",[5]; [22],100
same,"Plant response rating, Kochia",[6]; [18],85
same,"Plant response rating, Kochia",[6]; [19],100
same,"Plant response rating, Kochia",[6]; [22],100
same,"Plant response rating, Nutsedge, Yellow",[7]; [21],0
same,"Plant response rating, Nutsedge, Yellow",[7]; [18],0
same,"Plant response rating, Nutsedge, Yellow",[7]; [19],0
same,"Plant response rating, Nutsedge, Yellow",[7]; [22],0
same,"Plant response rating, Soybean",[8]; [21],0
same,"Plant response rating, Soybean",[8]; [18],0
same,"Plant response rating, Soybean",[8]; [19],0
same,"Plant response rating, Soybean",[8]; [22],0
